Laboratory results: ChEMBL document CHEMBL5729163, “Substituted cyclohexyl compounds as NOP inhibiiors” (2022)

Each compound was assayed against Nociceptin receptor (Homo sapiens, UniProt P41146) (assay: Cell-Based NOP Assay: Formula (I) compounds were tested for antagonism of the nociceptin receptor (NOP) in a cell-based cAMP assay, using the LANCE cAMP Detection Kit, Perkin Elmer (Waltham, Mass.). This assay (LANCE cAMP) is a homogeneous, time-resolved fluorescence resonance energy transfer (TR-FRET) immunoassay designed to measure cAMP produced upon modulation of adenylyl cyclase activity by G protein-coupled receptors (GPCRs).ProtocolCells expressing human opioid NOP (ValiScreen cell line, cat #ES-230-C Perkin Elmer (Waltham, Mass.) were dispensed in simulation buffer (5 mM Hepes, 0.1% BSA, 0.5 mM IBMX in Hanks Buffered Saline Solution) at 2.5 μL cells per well (400 cells/well) into a 1536 white TC-treated assay plate. Compound was then added and plates were incubated for 15 minutes at room temperature. To each well was added 2.5 μL of a solution containing forskolin (3 μM final) and nociceptin peptide (390 pM final) diluted in stimulation buffer, and the plates were incubated for 30 minutes at room temperature. To each well was dispensed 5 μL of LANCE Ultra detection (1:300 dilution of anti-cAMP ULight with a 1:100 dilution of Eu-cAMP tracer diluted in cAMP Detection Buffer) reagent, and the plates were incubated for 1 hr at room temperature. The plate was then read on the ViewLux microplate reader (Perkin Elmer, Waltham, Mass.) using the LANCE 1536 protocol with 60 second exposure times and 50 μs delay. This protocol has an excitation wavelength of 340 nm (DUG11 filter) and emission wavelengths of 615 nm (Eu-Donor) and 665 nm (Alexa 647 cAMP antibody acceptor).Data AnalysisData was analyzed, normalized, and visualized using ACAS (John McNeil & Co.). Efficacy was calculated using activity of the vehicle (DMSO) as 0% efficacy and the activity of the corresponding reference positive control (SCH 221510, Tocris Bioscience (Pittsburgh, Pa.), Catalog number 3240) as 100% efficacy. Activity was calculated as the ratio of donor and acceptor emissions. All curve fits and IC50 determinations were performed using a non-linear regression model. The IC50 value was measured as the concentration at which half-maximal response was calculated.).
Nociceptin receptor, sequence (P41146 whole entry): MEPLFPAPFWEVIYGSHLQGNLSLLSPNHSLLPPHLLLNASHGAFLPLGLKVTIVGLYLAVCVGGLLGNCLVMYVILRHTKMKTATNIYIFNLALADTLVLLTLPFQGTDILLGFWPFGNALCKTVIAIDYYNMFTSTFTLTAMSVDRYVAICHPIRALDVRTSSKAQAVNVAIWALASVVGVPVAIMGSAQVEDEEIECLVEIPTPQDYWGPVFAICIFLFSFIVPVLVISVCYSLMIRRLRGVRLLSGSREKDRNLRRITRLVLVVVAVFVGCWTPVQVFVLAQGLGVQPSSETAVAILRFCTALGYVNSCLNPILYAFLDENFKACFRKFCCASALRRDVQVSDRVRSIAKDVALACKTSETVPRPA

SMILES | IC50 [µM]
Fc1ccc([C@H]2CC[C@@H](CCNC3CCOCC3)CC2)c(F)c1 | 0.001 to 0.01
CNC(=O)C1(NCC[C@H]2CC[C@H](c3ncc(F)cc3Cl)CC2)CCOCC1 | 0.001 to 0.01
CCNC(=O)C1(NCC[C@H]2CC[C@@H](c3ncc(F)cc3Cl)CC2)CCOCC1 | 0.001 to 0.01
NC(=O)C1(NCC[C@H]2CC[C@H](c3cc(F)ccc3Cl)CC2)CCOCC1 | 0.01 to 0.1
Clc1cccnc1[C@H]1CC[C@@H](CCNC2CCOCC2)CC1 | 0.01 to 0.1
O=C1C[C@H](NCC[C@H]2CC[C@@H](c3ncc(F)cc3Cl)CC2)CCN1 | 0.001 to 0.01
Clc1ccccc1C1CCC(CCNC2CCOCC2)CC1 (stereo unspecified) | 0.001 to 0.01
Fc1ccc([C@H]2CC[C@H](CCNC3CCOCC3)CC2)c(Cl)c1 | 0.001 to 0.01
NC(=O)C1(NCC[C@H]2CC[C@H](c3ccc(F)cc3C(F)(F)F)CC2)CCOCC1 | 0.01 to 0.1
OC1COCCC1NCC[C@H]1CC[C@@H](c2ccc(F)cc2Cl)CC1 (stereo partly specified) | < 0.001
CNC(=O)C1(NCC[C@H]2CC[C@@H](c3c(F)cncc3Cl)CC2)CCOCC1 | 0.001 to 0.01
Fc1ccc([C@H]2CC[C@H](CCNC3CCOCC3)CC2)c(F)c1 | 0.001 to 0.01
COCC1(NCC[C@H]2CC[C@@H](c3ncc(F)cc3Cl)CC2)CCOCC1 | 0.01 to 0.1
Fc1cnc([C@H]2CC[C@@H](CCNC3CCOCC3)CC2)c(Cl)c1 | < 0.001
Fc1cnc([C@H]2CC[C@H](CCNC3CCOCC3)CC2)c(Cl)c1 | 0.001 to 0.01
Fc1cc(Cl)ccc1C1CCC(CCNC2CCOCC2)CC1 (stereo unspecified) | 0.001 to 0.01
Fc1ccc(C2CCC(CCN[C@H]3CC[C@@H](F)C3)CC2)c(Cl)c1 (stereo partly specified) | < 0.001
NC(=O)C1(NCC[C@H]2CC[C@H](c3ncc(F)cc3Cl)CC2)CCOCC1 | 0.01 to 0.1
CS(=O)(=O)N1CCC(NCC[C@H]2CC[C@@H](c3ccc(F)cc3Cl)CC2)CC1 | 0.01 to 0.1
CCNC(=O)C1(NCC[C@H]2CC[C@@H](c3ccc(F)cc3Cl)CC2)CCOCC1 | 0.001 to 0.01
Fc1ccc(Cl)c(C2CCC(CCNC3CCCC3)CC2)c1 (stereo unspecified) | 0.01 to 0.1
O=C1CC(NCC[C@H]2CC[C@@H](c3ccc(F)cc3Cl)CC2)CCN1 (stereo partly specified) | < 0.001
Cc1cc(F)ccc1C1CCC(CCNC2(C)CCCC2)CC1 (stereo unspecified) | 0.01 to 0.1
NC(=O)C1(NCC[C@H]2CC[C@@H](c3cc(F)ccc3Cl)CC2)CCOCC1 | 0.01 to 0.1
NC(=O)C1(NCC[C@H]2CC[C@H](c3ncccc3Cl)CC2)CCOCC1 | 0.1 to 1
NC(=O)C1(NCC[C@H]2CC[C@H](c3c(F)cc(F)cc3F)CC2)CCOCC1 | 0.001 to 0.01

SMILES | IC50 [µM]
OC1CCCC1NCC[C@H]1CC[C@@H](c2ccc(F)cc2Cl)CC1 (stereo partly specified) | < 0.001
COCC1(NCCC2CCC(c3ccc(F)cc3F)CC2)CCOCC1 (stereo unspecified) | 0.01 to 0.1
O=C1C[C@@H](NCC[C@H]2CC[C@@H](c3ccc(F)cc3Cl)CC2)CCN1 | 0.001 to 0.01
Fc1ccc(C2CCC(CCNC3CCCCC3)CC2)c(F)c1 (stereo unspecified) | 0.01 to 0.1
N#C[C@H]1CC[C@@H](NCC[C@H]2CC[C@@H](c3ccc(F)cc3C(F)(F)F)CC2)CC1 | < 0.001
NC(=O)C1(NCC[C@H]2CC[C@@H](c3ccc(F)cc3C(F)(F)F)CC2)CCOCC1 | 0.001 to 0.01
Cc1cc(F)cc(F)c1[C@H]1CC[C@@H](CCNC2(C(N)=O)CCOCC2)CC1 | 0.001 to 0.01
CN1CCC(NCC[C@H]2CC[C@@H](c3ccc(F)cc3Cl)CC2)CC1=O (stereo partly specified) | 0.01 to 0.1
O=C1C[C@H](NCC[C@H]2CC[C@H](c3ncc(F)cc3Cl)CC2)CCN1 | 0.001 to 0.01
Cc1cc(F)c(F)cc1[C@H]1CC[C@H](CCN[C@@H]2CCNC(=O)C2)CC1 | 0.01 to 0.1
Cc1cc(F)ccc1[C@H]1CC[C@@H](CCNC2(C(N)=O)CCOCC2)CC1 | 0.001 to 0.01
Fc1cccc(C2CCC(CCNC3CCCCC3)CC2)c1Cl (stereo unspecified) | 0.01 to 0.1
Fc1ccc([C@H]2CC[C@@H](CCNC3CCCC3(F)F)CC2)c(Cl)c1 (stereo partly specified) | 0.01 to 0.1
NC(=O)C1(NCC[C@H]2CC[C@@H](c3ncc(F)cc3Cl)CC2)CCOCC1 | 0.01 to 0.1
CNC(=O)C1(NCC[C@H]2CC[C@H](c3ccc(F)cc3C(F)(F)F)CC2)CCOCC1 | 0.001 to 0.01
Fc1cccc(Cl)c1C1CCC(CCNC2CCCCC2)CC1 (stereo unspecified) | 0.001 to 0.01
Cc1cc(F)ccc1C1CCC(CCNC2CCOCC2)CC1 (stereo unspecified) | 0.001 to 0.01
COCC1(NCCC2CCC(c3c(F)cccc3Cl)CC2)CCOCC1 (stereo unspecified) | 0.01 to 0.1
Cc1c(F)c(F)ccc1[C@H]1CC[C@@H](CCNC2(C(N)=O)CCOCC2)CC1 | 0.01 to 0.1
NC(=O)C1(NCC[C@H]2CC[C@H](c3c(F)cc(F)cc3Cl)CC2)CCOCC1 | 0.001 to 0.01
Fc1ccc(Cl)c(C2CCC(CCNC3CCOCC3)CC2)c1 (stereo unspecified) | 0.001 to 0.01
CNC(=O)C1(NCC[C@H]2CC[C@@H](c3ccc(F)cc3C(F)(F)F)CC2)CCOCC1 | 0.001 to 0.01
NC(=O)C1(NCC[C@H]2CC[C@@H](c3ccc(F)cc3Cl)CC2)CCCC1 | 0.01 to 0.1
Fc1cccc(Cl)c1[C@H]1CC[C@@H](CCNC2CCOCC2)CC1 | < 0.001
COCC1(NCC[C@H]2CC[C@H](c3ncc(F)cc3Cl)CC2)CCOCC1 | 0.1 to 1
Cc1cc(F)c(F)cc1[C@H]1CC[C@@H](CCNC2(C(N)=O)CCOCC2)CC1 | 0.01 to 0.1

SMILES | IC50 [µM]
OCC1(NCC[C@H]2CC[C@@H](c3ccc(F)cc3Cl)CC2)CCOCC1 | 0.001 to 0.01
NC(=O)C1(NCC[C@H]2CC[C@H](c3ccc(F)cc3Cl)CC2)CCOCC1 | 0.01 to 0.1
CNC(=O)C1(NCC[C@H]2CC[C@@H](c3ccc(F)cc3F)CC2)CCOCC1 | 0.01 to 0.1
O=C1NCCC1NCC[C@H]1CC[C@@H](c2ccc(F)cc2Cl)CC1 (stereo partly specified) | 0.001 to 0.01
CO[C@@H]1COCC[C@@H]1NCC[C@H]1CC[C@@H](c2ccc(F)cc2Cl)CC1 | 0.001 to 0.01
Cc1cccnc1[C@H]1CC[C@@H](CCNC2CCOCC2)CC1 | 0.01 to 0.1
CNC(=O)C1(NCCC2CCC(c3ncc(F)cc3Cl)CC2)CCCC1 (stereo unspecified) | 0.01 to 0.1
Cc1cc(F)ccc1C1CCC(CCNC2CCCC2)CC1 (stereo unspecified) | 0.001 to 0.01
Fc1cc(Cl)ccc1C1CCC(CCNC2CCCCC2)CC1 (stereo unspecified) | 0.001 to 0.01
Cc1cc(F)c(F)cc1[C@H]1CC[C@@H](CCN[C@@H]2CCNC(=O)C2)CC1 | 0.001 to 0.01
O=C1C[C@H](NCC[C@H]2CC[C@@H](c3ccc(F)cc3Cl)CC2)CCN1 | < 0.001
CC1(NCC[C@H]2CC[C@H](c3ncc(F)cc3Cl)CC2)CCNC(=O)C1 (stereo partly specified) | 0.01 to 0.1
NC(=O)C1(NCC[C@H]2CC[C@@H](c3c(F)cc(F)cc3Cl)CC2)CCOCC1 | 0.001 to 0.01
Cc1cccnc1C1CCC(CCNC2CCOCC2)CC1 (stereo unspecified) | 0.01 to 0.1
CNC(=O)C1(NCC[C@H]2CC[C@@H](c3ccc(F)cc3Cl)CC2)CCOCC1 | < 0.001
Cc1cc(F)ccc1[C@H]1CC[C@H](CCNC2CCOCC2)CC1 | 0.001 to 0.01
Fc1cccc(Cl)c1C1CCC(CCNC2CCCC2)CC1 (stereo unspecified) | 0.001 to 0.01
CC1(NCCC2CCC(c3c(F)cccc3Cl)CC2)CCCC1 (stereo unspecified) | 0.01 to 0.1
Fc1cnc(C2CCC(CCNC3CCCCC3)CC2)c(Cl)c1 (stereo unspecified) | 0.001 to 0.01
Fc1cnc([C@H]2CC[C@@H](CCNC3CCOCC3)CC2)nc1 | 0.1 to 1
COCC1(NCCC2CCC(c3cc(F)ccc3Cl)CC2)CCOCC1 (stereo unspecified) | 0.01 to 0.1
CNC(=O)C1(NCC[C@H]2CC[C@H](c3ccc(F)cc3F)CC2)CCOCC1 | 0.001 to 0.01
CC(=O)N1CCC(NCC[C@H]2CC[C@@H](c3ccc(F)cc3Cl)CC2)C1 (stereo partly specified) | 0.01 to 0.1
CNC(=O)C1(NCC[C@H]2CC[C@@H](c3ncc(F)cc3Cl)CC2)CCOCC1 | 0.001 to 0.01
NC(=O)C1(NCC[C@H]2CC[C@@H](c3ccc(F)cc3F)CC2)CCOCC1 | 0.01 to 0.1
CCNC(=O)C1(NCC[C@H]2CC[C@H](c3ncc(F)cc3Cl)CC2)CCOCC1 | 0.01 to 0.1

SMILES | IC50 [µM]
CNC(=O)C1(NCC[C@H]2CC[C@@H](c3ccc(F)cc3Cl)CC2)CCCC1 | 0.001 to 0.01
COCC1(NCC[C@H]2CC[C@@H](c3ccc(F)cc3Cl)CC2)CCNC(=O)C1 (stereo partly specified) | 0.01 to 0.1
Fc1cccc(Cl)c1[C@H]1CC[C@H](CCNC2CCOCC2)CC1 | 0.001 to 0.01
Fc1ccc([C@H]2CC[C@@H](CCNC3CCC(F)(F)C3)CC2)c(Cl)c1 (stereo partly specified) | < 0.001
CCNC(=O)C1(NCC[C@H]2CC[C@@H](c3ccc(F)cc3C(F)(F)F)CC2)CCOCC1 | 0.001 to 0.01
CC1(NCC[C@H]2CC[C@@H](c3ccc(F)cc3Cl)CC2)CCNC(=O)C1 (stereo partly specified) | 0.01 to 0.1
NC(=O)C1(NCC[C@H]2CC[C@@H](c3ccc(F)cc3Cl)CC2)CCOCC1 | 0.001 to 0.01
NC(=O)C1(NCC[C@H]2CC[C@@H](c3ncccc3Cl)CC2)CCOCC1 | 0.1 to 1
COCC1(NCCC2CCC(c3ccccc3Cl)CC2)CCOCC1 (stereo unspecified) | 0.01 to 0.1
Fc1ccc([C@H]2CC[C@@H](CCNC3CCOCC3)CC2)c(Cl)c1 | < 0.001
CC(=O)N1CCC(NCC[C@H]2CC[C@@H](c3ccc(F)cc3Cl)CC2)CC1 | 0.01 to 0.1
Cc1cc(F)ccc1[C@H]1CC[C@H](CCNC2(C(N)=O)CCOCC2)CC1 | 0.01 to 0.1
Clc1cccnc1[C@H]1CC[C@H](CCNC2CCOCC2)CC1 | 0.01 to 0.1
CC1(NCCC2CCC(c3ncc(F)cc3Cl)CC2)CCCC1 (stereo unspecified) | 0.01 to 0.1
Fc1ccc(C2CCC(CCNC3CCCC3)CC2)c(F)c1 (stereo unspecified) | 0.01 to 0.1
COCC1(NCC[C@H]2CC[C@@H](c3ccc(F)cc3Cl)CC2)CCOCC1 | 0.001 to 0.01
O=C1C[C@@H](NCC[C@H]2CC[C@@H](c3ncc(F)cc3Cl)CC2)CCN1 | 0.01 to 0.1
Cc1cc(F)cc(F)c1[C@H]1CC[C@H](CCNC2(C(N)=O)CCOCC2)CC1 | 0.001 to 0.01
CNC(=O)C1(NCC[C@H]2CC[C@H](c3c(F)cncc3Cl)CC2)CCOCC1 | 0.01 to 0.1
Fc1cnc(C2CCC(CCNC3(C4CC4)CCOCC3)CC2)c(Cl)c1 (stereo unspecified) | 0.01 to 0.1
Fc1cc(Cl)ccc1C1CCC(CCNC2CCCC2)CC1 (stereo unspecified) | 0.01 to 0.1
Cc1cc(F)ccc1[C@H]1CC[C@@H](CCNC2CCOCC2)CC1 | < 0.001
Fc1ccc([C@H]2CC[C@@H](CCNC3CCCC3)CC2)c(Cl)c1 | < 0.001
